Source: publication PMC9645260, “Small-molecule inhibitors of P-Rex guanine-nucleotide exchange factors” (Small GTPases, 2022)
Where two headings read alike, the source gives them in different places.

Target: T1, P-Rex1 DHPH domains (Homo sapiens, UniProt Q8TCU6)
T1 construct: 100 nM EE-P-Rex1 DHPH domains (PREX-in1, compounds 2–10 and 30–128); made in house; host or cells: Sf9 cells (baculovirus)
Test: Liposome-based GEF activity assay, isolated P-Rex1 DHPH domains
Assay type: biochemical
Conditions: for remaining activity at 10 µM: 10 µM compound, 100 nM EE-P-Rex1 DHPH domains, 200 nM prenylated EE-Rac1, PREX-in1, compounds 2-10 and 30-128
Description: Full-length N-terminally EE-tagged P-Rex1, P-Rex2, the P-Rex1 DH and DHPH domains and the P-Rex2 DH domain were produced in Sf9 cells using baculoviral transduction and were purified using anti-EE beads, as previously described. Briefly, frozen pellets from 500 ml of Sf9 culture infected with P-Rex expressing high-titre baculovirus were resuspended in ice-cold lysis Sf9-cell lysis buffer 2 (1x PBS, 1% Triton X-100, 5 mM EGTA, 1 mM EDTA, 25 mM NaF, 20 mM β-glycerophosphate, 1 mM DTT, 100 µM PMSF, 10 μg/ml each of leupeptin, pepstatin A, aprotinin and antipain) for 5 min and then ultracentrifuged at 118,000 × g for 1 h at 4°C. Supernatants were incubated with pre-washed anti-EE beads for 90 min on ice with end-over-end rotation. Beads were washed 4 times in wash buffer (2x PBS, 0.1% Triton X-100, 1 mM EGTA) and 5 times in elution buffer (1x PBS, 10% glycerol, 1 mM DTT, 1 mM EGTA, 0.01% Na azide), and protein was eluted by incubation with elution buffer containing Ac-EEYMPME peptide as described above. Protein was concentrated in a YM-100 Centricon (Millipore) at 5000 × g at 4°C. Fatty acid-free BSA and glycerol were added to final concentrations of 2 mg/ml and 50%, respectively. Protein concentration and purity were determined by coomassie staining of SDS-PAGE gels. Full-length Tiam1, expressed in and purified from Sf9 cells, was a kind gift from Angeliki Malliri, CRUK Manchester Institute, UK. The ITSN1 DHPH domains and Ect2 DHPH domains, produced in and purified from bacteria, were a kind gift from Kent Rossman, University of North Carolina, Chapel Hill, USA. The DOCK10 DHR2 domain, produced in and purified from bacteria, was a kind gift from Danni Fan, Institute of Cancer Research, London, UK. All small GTPase and GEF proteins were stored in aliquots at −80°C and were snap-frozen in liquid N2 after each use.
Liposome-based GEF activity assays were carried out essentially as described, except that GEFs were incubated with inhibitor compounds prior to the assay. GEFs (full-length P-Rex1, P-Rex2, and Tiam1, P-Rex1 DH and DHPH domains, P-Rex2 DH domain, ITSN1 DHPH domains, ECT2 DHPH domains or DOCK10 DHR2 domain) were diluted in 20 mM HEPES (pH 7.0 at 4°C), 200 mM KCl, 10% ethylene glycerol, 1% betaine, 500 µM EGTA, 0.01% azide. […] The final 10 µl samples contained GTPase, GEF and inhibitor at concentrations as stated, in 20 mM HEPES pH 7.5, 100 mM NaCl, 1 mM MgCl2, 1 mM EGTA, 1 mM DTT, 10 mg/ml fatty acid-free BSA, liposomes consisting of phosphatidylcholine, -serine and -inositol (200 µM each), with or without 10 µM PIP3, 1 µM GTPγS and 80 nM (1 µCi) ^35S-GTPγS. Positive controls contained additionally 2 mM EDTA to induce maximal GTP-loading of the GTPase. Samples were incubated at 30°C for 10 min, and reactions were stopped by the addition of 400 µl ice-cold wash buffer (1x PBS, 1 mM EGTA, 10 mM MgCl2, 1% Triton X-100, 100 µM GTP). Small GTPases were isolated using anti-EE antibody-coupled Sepharose beads or glutathione Sepharose beads, as appropriate, by incubation on ice for 90 min with end-over-end rotation, four washes in ice-cold wash buffer and resuspension of beads in Ultima Gold scintillation fluid (Perkin Elmer). ^35S-GTPγS incorporation was assessed by scintillation counting (Packard 1600TR, Liquid Scintillation Analyser).

T1 sequence (Q8TCU6 49-392 limits assumed): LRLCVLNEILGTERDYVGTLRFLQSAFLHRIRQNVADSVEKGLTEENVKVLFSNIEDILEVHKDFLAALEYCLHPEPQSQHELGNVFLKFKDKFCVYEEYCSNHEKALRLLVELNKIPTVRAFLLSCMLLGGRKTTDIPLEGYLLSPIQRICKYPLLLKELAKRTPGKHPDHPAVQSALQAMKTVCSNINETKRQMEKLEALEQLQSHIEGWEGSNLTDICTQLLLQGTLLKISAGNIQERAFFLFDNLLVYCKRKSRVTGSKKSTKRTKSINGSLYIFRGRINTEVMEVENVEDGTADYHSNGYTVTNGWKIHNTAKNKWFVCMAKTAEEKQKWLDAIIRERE

Row | SMILES | remaining activity at 10 µM | inhibition at 10 µM (100 nM DHPH domains, without PIP3, read-out: inhibition of constitutive Rac-GEF activity of isolated P-Rex1 DHPH domains) | inhibition at 10 µM (Rho-GEF selectivity panel, 200 nM GTPase, read-out: inhibition of P-Rex1 DHPH Rac-GEF activity) | IC50 (liposome-based GEF assay, 200 nM prenylated EE-Rac2 as substrate, read-out: IC50 of inhibition of P-Rex1 DHPH Rac-GEF activity)
1 | CC1CCC(C(C)C)c2nn(C(=O)/C=C\c3ccccc3)c(-c3cccc4ccccc34)c21 (centres unmarked) [#10] | 28% | – | – | –
2 | COc1ccc(-c2[nH]nc3c2C(c2ccc(-c4ccc(Cl)cc4)o2)C(C#N)=C(N)O3)cc1 (centres unmarked) [PREX-in1, 6-amino-4-[5-(4-chlorophenyl)-2-furyl]-3-(4-methoxyphenyl)-2,4-dihydropyrano[2,3-c]pyrazole-5-carbonitrile] | 3% | 100% | > 90% | 4.5 µM
